According to the supplement of paper PMC10331698:
± gives the standard deviation of the averaged measurements.

What was measured:
Assay in all cases: level (log10 ratio to DMSO vehicle control); higher = higher biomarker level / cell amount than vehicle control
[1] = compound: OCC(F)(F)OC(F)(F)C(F)(F)OC(F)(F)CO [1H,1H,8H,8H-Perfluoro-3,6-dioxaoctane-1,8-diol]; settings: in DMSO
Method: (§1)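 BioMAP Diversity Plus panel of 12 human primary cell co-culture systems (3C, 4H, LPS, SAg, BT, BF4T, BE3C, CASM3C, HDF3CGF, KF3CT, MyoF, Mphg). Compounds were added 1 h before stimulation and left for 24 h (MyoF 48 h; BT 72 h for soluble read-outs or 6 d for IgG). Biomarkers were read by ELISA, cytotoxicity by SRB, PBMC viability and proliferation by Alamar Blue. Each well value was divided by the mean of 8 DMSO control wells on the same plate and log10 transformed; duplicate blinded samples were tested at 4 concentrations.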

[2] = compound: CCN(CCO)S(=O)(=O)C(F)(F)C(F)(F)C(F)(F)C(F)(F)C(F)(F)C(F)(F)C(F)(F)C(F)(F)F [N-Ethyl-N-(2-hydroxyethyl)perfluorooctanesulfonamide]; settings: in DMSO
Method: as §1

[3] = compound: O=C(O)C(F)(F)OC(F)(F)C(F)(F)OC(F)(F)F [Perfluoro-3,6-dioxaheptanoic acid]; settings: in DMSO
Method: as §1

[4] = compound: FC(F)(F)C(F)(C(F)(F)F)C(F)(F)C(F)(F)CC1CO1 [3-(Perfluoro-3-methylbutyl)-1,2-propenoxide]; settings: in DMSO
Method: as §1

Perfluorodecanoic acid = compound: O=C(O)C(F)(F)C(F)(F)C(F)(F)C(F)(F)C(F)(F)C(F)(F)C(F)(F)C(F)(F)C(F)(F)F [Perfluorodecanoic acid]; settings: in DMSO
Method: as §1

[5] = compound: OCCCC(F)(F)C(F)(F)C(F)(F)C(F)(F)C(F)(F)C(F)(F)C(F)(F)F [7:3 Fluorotelomer alcohol]; settings: 6700 nM; in DMSO
Method: as §1

Perfluoropropanoic acid = compound: O=C(O)C(F)(F)C(F)(F)F [Perfluoropropanoic acid]; settings: in DMSO
Method: as §1

| Test System | level (log10) ([1]; 6700 nM) | level (log10) ([1]; 20000 nM) | level (log10) ([1]; 60000 nM) | level (log10) ([2]; 6700 nM) | level (log10) ([2]; 20000 nM) | level (log10) ([3]; 6700 nM) | level (log10) ([3]; 20000 nM) | level (log10) ([3]; 60000 nM) | level (log10) ([4]; 6700 nM) | level (log10) ([4]; 20000 nM) | level (log10) (Perfluorodecanoic acid; 6700 nM) | level (log10) (Perfluorodecanoic acid; 20000 nM) | level (log10) [5] | level (log10) (Perfluoropropanoic acid; 6700 nM) | level (log10) (Perfluoropropanoic acid; 20000 nM) | level (log10) (Perfluoropropanoic acid; 60000 nM) |
| --- | --- | --- | --- | --- | --- | --- | --- | --- | --- | --- | --- | --- | --- | --- | --- | --- |
| BF4T:MMP-1 | 0.0115 ± 0.022 | 0.013 ± 0.028 | 0.0135 ± 0.026 | 0.015 | 0.0095 ± 0.0078 | -0.0125 ± 0.025 | -0.004 ± 0.028 | -0.001 ± 0.013 | -0.0115 ± 0.047 | 0.02 ± 0.067 | -0.0015 ± 0.0035 | -0.201 ± 0.011 | 0.0005 ± 0.018 | 0.003 ± 0.0071 | 0.0035 ± 0.029 | 0.009 ± 0.033 |
| BT:sIL-17A | 0.144 ± 0.073 | -0.0645 ± 0.022 | -0.128 ± 0.16 | 0.122 ± 0.083 | -0.631 ± 0.21 | -0.0275 ± 0.093 | -0.102 ± 0.26 | -0.155 ± 0.16 | 0.135 ± 0.0092 | -0.0585 ± 0.032 | -0.0525 ± 0.0092 | -0.0075 ± 0.17 | -0.0585 ± 0.17 | 0.0325 ± 0.0064 | -0.051 ± 0.12 | -0.065 ± 0.15 |
| BE3C:CXCL8/IL-8 | 0.0075 ± 0.005 | 0.001 ± 0.041 | -0.012 ± 0.045 | -0.0825 ± 0.013 | -0.218 ± 0.056 | -0.041 ± 0.033 | -0.007 ± 0.011 | -0.0155 ± 0.05 | 0.011 | 0.0205 ± 0.023 | -0.0545 ± 0.069 | -0.577 ± 0.023 | 0.006 ± 0.0028 | -0.0355 ± 0.083 | 0.001 ± 0.083 | 0.0605 ± 0.13 |
| BE3C:HLA-DR | -0.0065 ± 0.025 | -0.009 ± 0.021 | -0.008 ± 0.0042 | -0.0445 ± 0.013 | -0.115 ± 0.031 | -0.0205 ± 0.054 | -0.01 ± 0.035 | -0.0225 ± 0.056 | -0.0075 ± 0.005 | -0.003 ± 0.0085 | -0.0525 ± 0.022 | -0.842 ± 0.04 | 0.0045 ± 0.029 | -0.026 ± 0.0085 | -0.012 ± 0.024 | 0.016 ± 0.016 |
| 4H:CD87/uPAR | 0.015 ± 0.044 | 0.0265 ± 0.0035 | 0.0065 ± 0.044 | -0.037 ± 0.037 | -0.088 ± 0.024 | -0.0205 ± 0.023 | -0.019 ± 0.011 | -0.019 ± 0.018 | -0.005 ± 0.027 | 0.0075 ± 0.04 | 0.0115 ± 0.021 | 0.0135 ± 0.0092 | 0.0105 ± 0.015 | -0.0325 ± 0.025 | -0.014 ± 0.011 | 0.0085 ± 0.016 |
| BT:sIL-17F | 0.045 | -0.0205 ± 0.023 | -0.137 ± 0.096 | -0.0225 ± 0.029 | -0.299 ± 0.037 | -0.0035 ± 0.18 | -0.033 ± 0.027 | -0.0495 ± 0.021 | 0.0485 ± 0.028 | -0.0345 ± 0.093 | 0.019 ± 0.016 | 0.0345 ± 0.13 | 0.0115 ± 0.056 | 0.0335 ± 0.0035 | 0.0335 ± 0.023 | -0.0045 ± 0.052 |
| 4H:CD106/VCAM-1 | 0.0145 ± 0.012 | -0.0105 ± 0.0021 | -0.0025 ± 0.015 | 0.116 ± 0.021 | 0.0765 ± 0.0021 | -0.0245 ± 0.0092 | 0.001 ± 0.034 | -0.0215 ± 0.021 | 0.0245 ± 0.043 | 0.0215 ± 0.042 | 0.0165 ± 0.0092 | 0.0185 ± 0.029 | 0.019 ± 0.013 | -0.0085 ± 0.011 | -0.0075 ± 0.00071 | 0 ± 0.014 |
| 4H:SRB | -0.014 ± 0.0099 | -0.0195 ± 0.015 | -0.047 ± 0.0071 | -0.016 ± 0.0057 | -0.0605 ± 0.029 | 0.009 ± 0.0042 | 0.0085 ± 0.0035 | 0 ± 0.0042 | 0 ± 0.025 | -0.019 ± 0.0071 | 0.003 ± 0.0099 | -0.0055 ± 0.00071 | -0.0015 ± 0.0064 | 0 ± 0.0028 | -0.002 ± 0.0071 | 0.0095 ± 0.0092 |
| LPS:CD106/VCAM-1 | 0.0185 ± 0.033 | -0.02 ± 0.0042 | -0.013 ± 0.033 | -0.0195 ± 0.023 | -0.0395 ± 0.012 | -0.0215 ± 0.023 | -0.007 ± 0.0085 | -0.0105 ± 0.005 | -0.0085 ± 0.019 | 0.015 ± 0.013 | 0.0015 ± 0.0035 | -0.001 ± 0.0014 | -0.031 ± 0.0085 | -0.0105 ± 0.018 | -0.008 ± 0.02 | -0.0055 ± 0.022 |
| SAg:CD38 | -0.006 ± 0.02 | -0.0105 ± 0.013 | -0.0015 ± 0.0021 | -0.027 ± 0.017 | -0.0955 ± 0.012 | -0.0055 ± 0.052 | -0.003 ± 0.047 | -0.014 ± 0.024 | -0.0005 ± 0.0021 | 0.015 ± 0.018 | -0.009 ± 0.0014 | -0.017 ± 0.0057 | 0.0245 ± 0.07 | 0.0015 ± 0.043 | 0.023 ± 0.0085 | 0.029 ± 0.055 |
| LPS:CD141/Thrombomodulin | 0.004 ± 0.021 | 0.021 ± 0.018 | -0.002 ± 0.014 | 0.117 ± 0.0042 | 0.201 | -0.033 ± 0.081 | -0.018 ± 0.067 | -0.0165 ± 0.012 | 0.0355 ± 0.0035 | 0.019 ± 0.034 | 0.0035 ± 0.00071 | 0.002 ± 0.0057 | -0.0025 ± 0.013 | -0.003 ± 0.027 | -0.007 ± 0.0057 | 0.013 ± 0.0057 |
| LPS:sTNF-alpha | -0.0235 ± 0.025 | -0.0435 ± 0.032 | -0.0335 ± 0.022 | -0.006 ± 0.0028 | -0.005 ± 0.0085 | -0.012 ± 0.027 | -0.0265 ± 0.023 | -0.0205 ± 0.005 | 0.0005 ± 0.0078 | -0.0025 ± 0.005 | -0.0245 ± 0.011 | -0.02 ± 0.017 | -0.081 ± 0.05 | -0.006 ± 0.013 | 0.0065 ± 0.00071 | 0.0175 ± 0.0021 |
| SAg:CD69 | 0.0065 ± 0.0064 | 0.015 ± 0.016 | -0.0145 ± 0.013 | -0.043 ± 0.016 | -0.085 ± 0.04 | -0.024 ± 0.0085 | -0.013 ± 0.014 | -0.029 ± 0.0028 | -0.0125 ± 0.015 | -0.006 ± 0.059 | -0.0335 ± 0.015 | -0.062 ± 0.0057 | -0.026 ± 0.018 | -0.0175 ± 0.005 | -0.019 ± 0.0042 | -0.008 ± 0.023 |
| SAg:CD62E/E-Selectin | -0.0135 ± 0.0064 | -0.0185 ± 0.0064 | 0.0125 ± 0.044 | 0.0625 ± 0.013 | 0.079 ± 0.016 | -0.0015 ± 0.0021 | 0.001 ± 0.0042 | 0.021 ± 0.0057 | -0.0195 ± 0.019 | -0.012 | 0.0005 ± 0.015 | 0.0165 ± 0.023 | -0.0005 ± 0.00071 | 0.004 ± 0.013 | -0.0205 ± 0.016 | 0.0425 ± 0.023 |
| BF4T:CCL2/MCP-1 | 0.015 ± 0.028 | 0.012 ± 0.027 | 0.0085 ± 0.00071 | -0.004 ± 0.013 | -0.022 ± 0.0028 | -0.0235 ± 0.0021 | 0.002 ± 0.0071 | -0.0255 ± 0.023 | -0.011 ± 0.011 | -0.0035 ± 0.0092 | -0.043 ± 0.03 | -0.484 ± 0.11 | -0.0115 ± 0.019 | -0.0125 ± 0.011 | -0.0095 ± 0.005 | 0.061 ± 0.083 |
| BT:Secreted IgG | -0.0135 ± 0.06 | 0.0085 ± 0.04 | -0.054 ± 0.021 | -0.002 ± 0.016 | -1.16 ± 0.3 | 0.003 ± 0.016 | -0.016 ± 0.018 | -0.018 ± 0.0057 | -0.007 ± 0.064 | 0.016 ± 0.09 | -0.014 ± 0.033 | -0.018 ± 0.02 | -0.0105 ± 0.028 | 0.036 ± 0.028 | 0.03 ± 0.0057 | -0.004 ± 0.057 |
| SAg:Proliferation | -0.025 ± 0.013 | -0.0195 ± 0.023 | -0.0055 ± 0.015 | -0.098 ± 0.0057 | -0.335 ± 0.098 | -0.023 ± 0.061 | -0.005 ± 0.025 | 0.0115 ± 0.04 | 0.028 ± 0.017 | 0.007 ± 0.12 | 0.0435 ± 0.019 | 0.0255 ± 0.032 | -0.0205 ± 0.052 | -0.0205 ± 0.043 | -0.0085 ± 0.019 | -0.0025 ± 0.07 |
